{
  "source": "PubChem BioAssay (NCI)",
  "assay_in_all_cases": "NCI-60 cell line screen, 48 h",
  "key": {"SR leukemia": {"tested_on": "SR leukemia"}, "TK-10 renal": {"tested_on": "TK-10 renal"}, "SN12C renal": {"tested_on": "SN12C renal"}, "RPMI-8226 leukemia": {"tested_on": "RPMI-8226 leukemia"}, "SW-620 colon": {"tested_on": "SW-620 colon"}, "ACHN renal": {"tested_on": "ACHN renal"}, "SF-539 CNS": {"tested_on": "SF-539 CNS"}, "HCC-2998 colon": {"tested_on": "HCC-2998 colon"}, "NCI-H522 lung": {"tested_on": "NCI-H522 lung"}, "CAKI-1 renal": {"tested_on": "CAKI-1 renal"}, "MDA-MB-435": {"tested_on": "MDA-MB-435"}, "NCI-H23 lung": {"tested_on": "NCI-H23 lung"}, "M14 melanoma": {"tested_on": "M14 melanoma"}, "SK-MEL-28 melanoma": {"tested_on": "SK-MEL-28 melanoma"}, "OVCAR-3 ovarian": {"tested_on": "OVCAR-3 ovarian"}, "HL-60(TB) leukemia": {"tested_on": "HL-60(TB) leukemia"}, "BT-549 breast": {"tested_on": "BT-549 breast"}, "SK-MEL-5 melanoma": {"tested_on": "SK-MEL-5 melanoma"}, "RXF 393 renal": {"tested_on": "RXF 393 renal"}, "SF-268 CNS": {"tested_on": "SF-268 CNS"}, "CCRF-CEM leukemia": {"tested_on": "CCRF-CEM leukemia"}, "HS 578T breast": {"tested_on": "HS 578T breast"}, "K-562 leukemia": {"tested_on": "K-562 leukemia"}, "MDA-MB-231 breast": {"tested_on": "MDA-MB-231 breast"}, "OVCAR-5 ovarian": {"tested_on": "OVCAR-5 ovarian"}, "UO-31 renal": {"tested_on": "UO-31 renal"}, "A498 renal": {"tested_on": "A498 renal"}, "A549 NSCLC": {"tested_on": "A549 NSCLC"}, "U251 CNS": {"tested_on": "U251 CNS"}},
  "note": "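Each compound was tested at five concentrations against cells in 96-well plates for 48 hours. Here, GI50 denotes the concentration required for 50% inhibition of growth. Definition used: TGI = concentration required for complete inhibition of growth.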",
  "data": [
    {"smiles": "O=C(/C=C1\\C(=O)N(Cc2ccccc2)c2ccccc21)c1ccc(OCCN2CCCCC2)cc1", "values": [
      {"measurement": "GI50", "setting": "SR leukemia", "value": 1.77, "unit": "µM"},
      {"measurement": "TGI", "setting": "SR leukemia", "value": 9.55, "unit": "µM"},
      {"measurement": "GI50", "setting": "TK-10 renal", "value": 1.58, "unit": "µM"},
      {"measurement": "TGI", "setting": "TK-10 renal", "value": 2.97, "unit": "µM"},
      {"measurement": "GI50", "setting": "SN12C renal", "value": 1.9, "unit": "µM"},
      {"measurement": "TGI", "setting": "SN12C renal", "value": 4.03, "unit": "µM"},
      {"measurement": "GI50", "setting": "RPMI-8226 leukemia", "value": 2.07, "unit": "µM"},
      {"measurement": "TGI", "setting": "RPMI-8226 leukemia", "value": 4.72, "unit": "µM"},
      {"measurement": "GI50", "setting": "SW-620 colon", "value": 1.7, "unit": "µM"},
      {"measurement": "TGI", "setting": "SW-620 colon", "value": 3.3, "unit": "µM"},
      {"measurement": "GI50", "setting": "ACHN renal", "value": 1.63, "unit": "µM"},
      {"measurement": "TGI", "setting": "ACHN renal", "value": 2.98, "unit": "µM"},
      {"measurement": "GI50", "setting": "SF-539 CNS", "value": 2.07, "unit": "µM"},
      {"measurement": "TGI", "setting": "SF-539 CNS", "value": 4.14, "unit": "µM"},
      {"measurement": "GI50", "setting": "HCC-2998 colon", "value": 1.86, "unit": "µM"},
      {"measurement": "TGI", "setting": "HCC-2998 colon", "value": 3.47, "unit": "µM"},
      {"measurement": "GI50", "setting": "NCI-H522 lung", "value": 1.71, "unit": "µM"},
      {"measurement": "TGI", "setting": "NCI-H522 lung", "value": 3.21, "unit": "µM"},
      {"measurement": "GI50", "setting": "CAKI-1 renal", "value": 1.78, "unit": "µM"},
      {"measurement": "TGI", "setting": "CAKI-1 renal", "value": 4.02, "unit": "µM"},
      {"measurement": "GI50", "setting": "MDA-MB-435", "value": 2.49, "unit": "µM"},
      {"measurement": "TGI", "setting": "MDA-MB-435", "value": 9.33, "unit": "µM"},
      {"measurement": "GI50", "setting": "NCI-H23 lung", "value": 3.47, "unit": "µM"},
      {"measurement": "TGI", "setting": "NCI-H23 lung", "value": 14.5, "unit": "µM"},
      {"measurement": "GI50", "setting": "M14 melanoma", "value": 1.92, "unit": "µM"},
      {"measurement": "TGI", "setting": "M14 melanoma", "value": 3.72, "unit": "µM"},
      {"measurement": "GI50", "setting": "SK-MEL-28 melanoma", "value": 2.09, "unit": "µM"},
      {"measurement": "TGI", "setting": "SK-MEL-28 melanoma", "value": 4.36, "unit": "µM"},
      {"measurement": "GI50", "setting": "OVCAR-3 ovarian", "value": 1.75, "unit": "µM"},
      {"measurement": "TGI", "setting": "OVCAR-3 ovarian", "value": 3.2, "unit": "µM"},
      {"measurement": "GI50", "setting": "HL-60(TB) leukemia", "value": 1.71, "unit": "µM"},
      {"measurement": "TGI", "setting": "HL-60(TB) leukemia", "value": 4.39, "unit": "µM"},
      {"measurement": "GI50", "setting": "BT-549 breast", "value": 2.07, "unit": "µM"},
      {"measurement": "TGI", "setting": "BT-549 breast", "value": 4.05, "unit": "µM"},
      {"measurement": "GI50", "setting": "SK-MEL-5 melanoma", "value": 12.6, "unit": "µM"},
      {"measurement": "TGI", "setting": "SK-MEL-5 melanoma", "value": 25.4, "unit": "µM"},
      {"measurement": "GI50", "setting": "RXF 393 renal", "value": 1.65, "unit": "µM"},
      {"measurement": "TGI", "setting": "RXF 393 renal", "value": 3.17, "unit": "µM"},
      {"measurement": "GI50", "setting": "SF-268 CNS", "value": 2.98, "unit": "µM"},
      {"measurement": "TGI", "setting": "SF-268 CNS", "value": 10.7, "unit": "µM"},
      {"measurement": "GI50", "setting": "CCRF-CEM leukemia", "value": 1.83, "unit": "µM"},
      {"measurement": "TGI", "setting": "CCRF-CEM leukemia", "value": 5.9, "unit": "µM"},
      {"measurement": "GI50", "setting": "HS 578T breast", "value": 3, "unit": "µM"},
      {"measurement": "TGI", "setting": "HS 578T breast", "value": 9.91, "unit": "µM"},
      {"measurement": "GI50", "setting": "K-562 leukemia", "value": 1.84, "unit": "µM"},
      {"measurement": "TGI", "setting": "K-562 leukemia", "value": 6.53, "unit": "µM"},
      {"measurement": "GI50", "setting": "MDA-MB-231 breast", "value": 1.92, "unit": "µM"},
      {"measurement": "TGI", "setting": "MDA-MB-231 breast", "value": 3.88, "unit": "µM"},
      {"measurement": "GI50", "setting": "OVCAR-5 ovarian", "value": 1.76, "unit": "µM"},
      {"measurement": "TGI", "setting": "OVCAR-5 ovarian", "value": 3.6, "unit": "µM"},
      {"measurement": "GI50", "setting": "UO-31 renal", "value": 1.54, "unit": "µM"},
      {"measurement": "TGI", "setting": "UO-31 renal", "value": 2.87, "unit": "µM"},
      {"measurement": "GI50", "setting": "A498 renal", "value": 14.2, "unit": "µM"},
      {"measurement": "TGI", "setting": "A498 renal", "value": 28.8, "unit": "µM"},
      {"measurement": "GI50", "setting": "A549 NSCLC", "value": 8.42, "unit": "µM"},
      {"measurement": "TGI", "setting": "A549 NSCLC", "value": 21.6, "unit": "µM"},
      {"measurement": "GI50", "setting": "U251 CNS", "value": 1.91, "unit": "µM"}
    ]}
  ]
}
